Test system: T1, naringinase
T1 construct: native enzyme from culture, NADES extractive fermentation, Sephadex G-15 and DEAE-Sepharose; a beta-glucosidase activity (prunin to naringenin) may be included
Assay: Lineweaver-Burk; modified Davis assay, residual naringin at […] nm
Format: biochemical, Bacillus amyloliquefaciens
Settings: general assay: acetate buffer pH 4.2, 333 K, 60 min; printed unit is not a concentration; printed kcat/Km fits 1.5 × 10^-3 M

C[C@@H]1O[C@@H](O[C@H]2[C@H](Oc3cc(O)c4c(c3)O[C@H](c3ccc(O)cc3)CC4=O)O[C@H](CO)[C@@H](O)[C@@H]2O)[C@H](O)[C@H](O)[C@H]1O [Naringin]
Km: 1500 µM

From paper PMC9217967, “Simultaneous production and sustainable eutectic mixture based purification of narringinase with Bacillus amyloliquefaciens by valorization of tofu wastewater” (Scientific Reports, 2022)
